≈ marks a conversion by molar mass, not a printed value.

The experiment relates to Acinetobacter baumannii. Briefly: Antimicrobial activity against Acinetobacter baumannii B9 containing carbapenemase blaOXA-23 gene assessed as growth inhibition by Etest method. Type of experiment: functional.
One may read the MIC as the lowest concentration found to suppress growth. Turning to `CC1(C)S[C@@H]2[C@H](NC(=O)[C@H](N)c3ccc(O)cc3)C(=O)N2[C@H]1C(=O)O` [AMOXICILLIN], the MIC was more than 256 µg/mL.

For the compound `CO/N=C(\C(=O)N[C@@H]1C(=O)N2C(C(=O)O)=C(COC(N)=O)CS[C@H]12)c1ccco1` [CEFUROXIME], the MIC is more than 256 µg/mL.

As for `CCn1cc(C(=O)O)c(=O)c2cc(F)c(N3CCN(C)CC3)cc21` [PEFLOXACIN], the MIC is more than 256 µg/mL.

`CC1COc2c(N3CCN(C)CC3)c(F)cc3c(=O)c(C(=O)O)cn1c23` (stereo unspecified) [OFLOXACIN]: the MIC is more than 32 µg/mL.

`CC(C)(O/N=C(\C(=O)N[C@@H]1C(=O)N2C(C(=O)[O-])=C(C[n+]3ccccc3)CS[C@H]12)c1csc(N)n1)C(=O)O` [CEFTAZIDIME]: the MIC is more than 256 µg/mL.

Turning to `C[C@@H](O)[C@H]1C(=O)N2C(C(=O)O)=C(S[C@@H]3CN[C@H](C(=O)N(C)C)C3)[C@H](C)[C@H]12` [MEROPENEM], the MIC came to 24 µg/mL (≈ 62.6 µM).

As for `CC(=O)OCC1=C(C(=O)O)N2C(=O)[C@@H](NC(=O)Cc3cccs3)[C@H]2SC1` [CEPHALOTHIN], the MIC was more than 256 µg/mL.

Regarding `CO/N=C(\C(=O)N[C@@H]1C(=O)N2C(C(=O)O)=C(COC(C)=O)CS[C@H]12)c1csc(N)n1` [CEFOTAXIME], the MIC is more than 256 µg/mL.

Regarding `CCn1cc(C(=O)O)c(=O)c2ccc(C)nc21` [NALIDIXIC ACID], the MIC was more than 256 µg/mL.

As to `CCN[C@@H]1C[C@H](N)[C@@H](O[C@H]2OC(CN)=CC[C@H]2N)[C@H](O)[C@H]1O[C@H]1OC[C@](C)(O)[C@H](NC)[C@H]1O` [NETILMICIN], the MIC is 8 µg/mL (≈ 16.8 µM).

With `CC1(C)S[C@@H]2[C@H](NC(=O)[C@H](C(=O)O)c3ccsc3)C(=O)N2[C@H]1C(=O)O` [TICARCILLIN], the MIC was more than 256 µg/mL.

For the compound `CO[C@@]1(NC(=O)C(C(=O)O)c2ccc(O)cc2)C(=O)N2C(C(=O)O)=C(CSc3nnnn3C)CO[C@@H]21` (stereo partly specified) [MOXALACTAM], the MIC was more than 256 µg/mL.

For `CCN1CCN(C(=O)N[C@@H](C(=O)N[C@@H]2C(=O)N3[C@@H]2SC(C)(C)[C@@H]3C(=O)O)c2ccccc2)C(=O)C1=O` [PIPERACILLIN], the MIC is more than 256 µg/mL.

In the case of GENTAMICIN, the MIC stood at 8 µg/mL.

As for `C[C@@H](O)[C@H]1C(=O)N2C(C(=O)O)=C(S[C@@H]3CN[C@H](C(=O)Nc4cccc(C(=O)O)c4)C3)[C@H](C)[C@H]12` [ERTAPENEM], the MIC was more than 32 µg/mL.

Consider `C[C@H]1[C@H](NC(=O)/C(=N\OC(C)(C)C(=O)O)c2csc(N)n2)C(=O)N1S(=O)(=O)O` [AZTREONAM], for which the MIC came to 32 µg/mL (≈ 73.5 µM).

On to `CO/N=C(\C(=O)N[C@@H]1C(=O)N2C(C(=O)[O-])=C(C[n+]3cccc4c3CCC4)CS[C@H]12)c1csc(N)n1` [CEFPIROME], for which the MIC is more than 256 µg/mL.

In the case of `CO/N=C(\C(=O)N[C@@H]1C(=O)N2C(C(=O)[O-])=C(C[N+]3(C)CCCC3)CS[C@H]12)c1csc(N)n1` [CEFEPIME], the MIC was more than 256 µg/mL.

As for `C[C@@H](O)[C@H]1C(=O)N2C(C(=O)O)=C(SCCNC=N)C[C@H]12` [IMIPENEM ANHYDROUS], the MIC was found to be 48 µg/mL (≈ 160 µM).

With `NCC[C@H](O)C(=O)N[C@@H]1C[C@H](N)[C@@H](O[C@H]2O[C@H](CN)[C@@H](O)[C@H](O)[C@H]2O)[C@H](O)[C@H]1O[C@H]1O[C@H](CO)[C@@H](O)[C@H](N)[C@H]1O` [AMIKACIN], the MIC stood at 8 µg/mL (≈ 13.7 µM).

`O=C(O)c1cn(C2CC2)c2cc(N3CCNCC3)c(F)cc2c1=O` [CIPROFLOXACIN]: the MIC was more than 32 µg/mL.

Source of the values: ChEMBL document CHEMBL1212760, “First isolation of the blaOXA-23 carbapenemase gene from an environmental Acinetobacter baumannii isolate” (2010).
